Measured values: US4505898A, “Derivatives of acetylsalicylic acid and substituted phenylacetic acids and compositions containing them” (priority 1983, dated 1985)

What was measured:
[1] = test system: carrageenin-induced paw oedema; test: inhibition of experimentally-induced (carrageenin) paw oedema in rats; assay type: in vivo; conditions: rats fasted 18 hours; compound in aqueous 1% tragacanth, 25 ml/kg, 45 min before subplantar 0.1 ml 1% carrageenin; dose not given
Protocol: For this purpose, the well known test for the inhibition of experimentally-induced paw oedema in rats was used. The test was carried out as follows.
The rats are fasted 18 hours prior to dosing, but water is made available to them. Test compounds are then administered in aqueous 1% tragacanth at a dose volume of 25 ml/kg body weight. One group of rats is given vehicle only at the same dose volume. Forty five minutes later, all rats are given a subplantar injection of 0.1 ml of a 1% solution of carrageenin in 0.9% saline in the left hind paw. The volume of this paw is measured before and after the carrageenin injection using a volume differential meter designed by Ugo Basile.
Anti-inflammatory activity is measured as the percentage inhibition of paw oedema in the drug treated animals compared to the controls.

[2] = background statement, no test described; cited from earlier work

C=CCOc1ccc(CC(=O)NC(C)C(=O)OC)cc1Cl (racemic) [Compound 2, 4-allyloxy-3-chloro-phenylacetyl-(DL)-alanine methyl ester]
Anti-inflammatory activity (percentage inhibition of paw oedema compared to controls) [1]: 23.1%

CCCOc1ccc(CC(=O)O)cc1Cl [4-n-propoxy-3-chloro-phenylacetic acid]
anti-inflammatory activity compared with Alclofenac [2]: much reduced anti-inflammatory activity as compared with Alclofenac

C=CCOc1ccc(CC(=O)O)cc1Cl [Compound 1, 4-allyloxy-3-chloro-phenylacetic acid, reference compound]
Anti-inflammatory activity (percentage inhibition of paw oedema compared to controls) [1]: 36.0%

C=CCOc1ccc(CC(=O)NCC(=O)O)cc1Cl [Compound 3, 4-allyloxy-3-chloro-phenylacetyl-glycine]
Anti-inflammatory activity (percentage inhibition of paw oedema compared to controls) [1]: 34.6%

CCCOc1ccc(CC(=O)NCC(=O)O)cc1Cl [Compound 4, 4-n-propoxy-3-chloro-phenylacetyl-glycine]
Anti-inflammatory activity (percentage inhibition of paw oedema compared to controls) [1]: 35.2%
